This assay has as its target T1, hROMK (hKir1.1) (Homo sapiens, UniProt P48048).
T1 construct: expressed in transfected cells
T1 sequence (P48048 1-391): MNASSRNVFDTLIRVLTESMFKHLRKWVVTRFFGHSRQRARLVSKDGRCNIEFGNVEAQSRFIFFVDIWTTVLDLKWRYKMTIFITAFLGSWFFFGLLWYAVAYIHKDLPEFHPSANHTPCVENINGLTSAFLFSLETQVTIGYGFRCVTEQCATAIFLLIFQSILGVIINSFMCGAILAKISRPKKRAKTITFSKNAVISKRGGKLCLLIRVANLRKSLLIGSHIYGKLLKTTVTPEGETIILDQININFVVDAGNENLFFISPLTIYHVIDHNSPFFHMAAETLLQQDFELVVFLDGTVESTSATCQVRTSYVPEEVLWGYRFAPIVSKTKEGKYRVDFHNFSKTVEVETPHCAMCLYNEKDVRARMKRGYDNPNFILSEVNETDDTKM
As to the kind of experiment: Thallium Flux Assay (ROMK channel functional thallium flux assay). Format: cell-based. Conditions: HEK293 cells stably expressing hROMK (hKir1.1); FluxOR thallium flux, FLIPR-Tetra, 30 min compound incubation; read-out: ROMK TI IC50. The procedure, abridged:
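HEK293 cells stably expressing hROMK (hKir1.1) loaded with FluxOR dye 90 min at ambient temperature, then compound 30 min before thallium/potassium stimulant (final 3 mM Tl/0.3 mM K). ROMK-sensitive flux defined by 3 μM standard inhibitor; data as % fluorescence change.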

With `Cc1c([C@@H](O)CN2CCC3(CC2)CCN(c2cnc(Br)cn2)CC3)ccc2c1COC2=O` [Example 127, (R)-5-(2-(9-(5-bromopyrazin-2-yl)-3,9-diazaspiro[5.5]undecan-3-yl)-1-hydroxyethyl)-4-methylisobenzofuran-1(3H)-one], the 50% inhibitory concentration (IC50) came out at 0.0299 µM.

Take `Cc1nccnc1N1CCC2(CCN(C[C@H](O)c3ccc4c(c3C)COC4=O)CC2)CC1` [Example 128, (R)-5-(1-hydroxy-2-(9-(3-methylpyrazin-2-yl)-3,9-diazaspiro[5.5]undecan-3-yl)ethyl)-4-methylisobenzofuran-1(3H)-one]: the IC50 worked out at 0.581 µM.

Take `Cc1c([C@@H](O)CN2CCC3(CC2)CCN(c2cncc(N)n2)CC3)ccc2c1COC2=O` [Example 129, (R)-5-(2-(9-(6-aminopyrazin-2-yl)-3,9-diazaspiro[5.5]undecan-3-yl)-1-hydroxyethyl)-4-methylisobenzofuran-1(3H)-one]: the concentration for half-maximal inhibition (IC50) stood at 0.0683 µM.

Consider `Cc1cc(N2CCC3(CCN(C[C@H](O)c4ccc5c(c4C)COC5=O)CC3)CC2)nnc1Cl` [Example 130, (R)-5-(2-(9-(6-chloro-5-methylpyridazin-3-yl)-3,9-diazaspiro[5.5]undecan-3-yl)-1-hydroxyethyl)-4-methylisobenzofuran-1(3H)-one], for which the IC50 amounted to 0.553 µM.

For the compound `Cc1c([C@@H](O)CN2CCC3(CC2)CCN(c2cc(Cl)cnn2)CC3)ccc2c1COC2=O` [Example 131, (R)-5-(2-(9-(5-chloropyridazin-3-yl)-3,9-diazaspiro[5.5]undecan-3-yl)-1-hydroxyethyl)-4-methylisobenzofuran-1(3H)-one], the IC50 is 0.0238 µM.

Take `Cc1c([C@@H](O)CN2CCC3(CC2)CCN(c2cnc(Cl)cn2)CC3)ccc2c1COC2=O` [Example 132, (R)-5-(2-(9-(5-chloropyrazin-2-yl)-3,9-diazaspiro[5.5]undecan-3-yl)-1-hydroxyethyl)-4-methylisobenzofuran-1(3H)-one]: the IC50 came out at 0.0228 µM.

Take `Cc1c([C@@H](O)CN2CCC3(CC2)CCN(c2nccnc2Cl)CC3)ccc2c1COC2=O` [Example 133, (R)-5-(2-(9-(3-chloropyrazin-2-yl)-3,9-diazaspiro[5.5]undecan-3-yl)-1-hydroxyethyl)-4-methylisobenzofuran-1(3H)-one]: the IC50 is 0.274 µM.

Take `O[C@@H](CN1CCC2(CC1)CCN(c1cncc(Cl)n1)CC2)c1ccc(-n2cnnn2)nc1` [Example 134, (R)-1-(6-(1H-tetrazol-1-yl)pyridin-3-yl)-2-(9-(6-chloropyrazin-2-yl)-3,9-diazaspiro[5.5]undecan-3-yl)ethanol]: the IC50 is 0.747 µM.

As to `O[C@@H](CN1CCC2(CC1)CCN(c1cnc(Cl)cn1)CC2)c1ccc(-n2cnnn2)nc1` [Example 135, (R)-1-(6-(1H-tetrazol-1-yl)pyridin-3-yl)-2-(9-(5-chloropyrazin-2-yl)-3,9-diazaspiro[5.5]undecan-3-yl)ethanol], the IC50 was 0.875 µM.

Take `Cc1c([C@@H](O)CN2CCC3(CC2)CCN(c2ncccn2)CC3)ccc2c1COC2=O` [Example 136, (R)-5-(1-hydroxy-2-(9-(pyrimidin-2-yl)-3,9-diazaspiro[5.5]undecan-3-yl)ethyl)-4-methylisobenzofuran-1(3H)-one]: the IC50 is 0.33 µM.

Turning to `Cc1c([C@@H](O)CN2CCC3(CC2)CCN(c2nccs2)CC3)ccc2c1COC2=O` [Example 137, (R)-5-(1-hydroxy-2-(9-(thiazol-2-yl)-3,9-diazaspiro[5.5]undecan-3-yl)ethyl)-4-methylisobenzofuran-1(3H)-one], the IC50 worked out at 0.283 µM.

`O[C@@H](CN1CCC2(CC1)CCN(c1cc(Cl)cnn1)CC2)c1ccc(-n2cnnn2)nc1` [Example 138, (R)-1-(6-(1H-tetrazol-1-yl)pyridin-3-yl)-2-(9-(5-chloropyridazin-3-yl)-3,9-diazaspiro[5.5]undecan-3-yl)ethanol]: the IC50 was found to be 0.387 µM.

Regarding `Cc1c([C@@H](O)CN2CCC3(CC2)CCN(c2cccnn2)CC3)ccc2c1COC2=O` [Example 139, (R)-5-(1-hydroxy-2-(9-(pyridazin-3-yl)-3,9-diazaspiro[5.5]undecan-3-yl)ethyl)-4-methylisobenzofuran-1(3H)-one], the IC50 amounted to 0.251 µM.

`COC(=O)c1csc(N2CCC3(CCN(C[C@H](O)c4ccc5c(c4C)COC5=O)CC3)CC2)n1` [Example 140, (R)-methyl 2-(9-(2-hydroxy-2-(4-methyl-1-oxo-1,3-dihydroisobenzofuran-5-yl)ethyl)-3,9-diazaspiro[5.5]undecan-3-yl)thiazole-4-carboxylate]: the IC50 was determined as 0.364 µM.

Take `COc1cnc(N2CCC3(CCN(C[C@H](O)c4ccc5c(c4C)COC5=O)CC3)CC2)cn1` [Example 141, (R)-5-(1-hydroxy-2-(9-(5-methoxypyrazin-2-yl)-3,9-diazaspiro[5.5]undecan-3-yl)ethyl)-4-methylisobenzofuran-1(3H)-one]: the IC50 worked out at 0.35 µM.

As to `Cc1c([C@@H](O)CN2CCC3(CC2)CCN(c2ccnnc2)CC3)ccc2c1COC2=O` [Example 142, (R)-5-(1-hydroxy-2-(9-(pyridazin-4-yl)-3,9-diazaspiro[5.5]undecan-3-yl)ethyl)-4-methylisobenzofuran-1(3H)-one], the IC50 was 0.17 µM.

The values above are taken from patent publication US20170275298A1, “INHIBITORS OF THE RENAL OUTER MEDULLARY POTASSIUM CHANNEL” (Merck Sharp & Dohme Corp., priority 2014, published 2017).
